The text below walks through data of PMC8228141, “Antiprotozoal Nor-Triterpene Alkaloids from Buxus sempervirens L” (Antibiotics, 2021).

“And” between values parts separate entries of the source, which are not always exact repeats. Identical values can stand only once. Like-named read-outs stand apart in the source and are kept apart here.

Data set [1] relates to Trypanosoma brucei rhodesiense (Tbr) (bloodstream trypomastigotes, STIB 900 strain). Put plainly: In vitro antitrypanosomal activity. The data set is classed as cell-based. The note with it: for Tbr IC50 / IC50: STIB 900 strain; for SI Tbr (selectivity index): cytotoxicity L6 vs Tbr. The method, then: (§1) After isolation, all alkaloids were tested in vitro for antiplasmodial and antitrypanosomal activity against Plasmodium falciparum (Pf) and Trypanosoma brucei rhodesiense (Tbr). Furthermore, to assess their selectivity against the parasites, cytotoxicity against L6 rat skeletal myoblasts, as mammalian control cells, was tested (Table 4).
In vitro assays for the bioactivity of the isolated Buxus-alkaloids against Tbr (bloodstream trypomastigotes, STIB 900 strain), Trypanosoma cruzi (Tc) (amastigotes, Tulahuen C4 strain), Leishmania donovani (Ldo) (amastigotes, MHOM-ET-67/L82 strain) and Pf (intraerythrocytic forms, NF54 strain), and cytotoxicity tests against mammalian cells (L6-cell line from rat-skeletal myoblasts), were performed at the Swiss Tropical and Public Health Institute (Swiss TPH, Basel, Switzerland) according to established standard protocols. […] Such a pattern of activity was also observed in other studies.

Data set [2] relates to L6 rat skeletal myoblasts. Nature of the data set: Cytotoxicity against mammalian control cells. The data set is classed as cell-based. The method, then: as §1
(§2) In vitro assays for the bioactivity of the isolated Buxus-alkaloids against Tbr (bloodstream trypomastigotes, STIB 900 strain), Trypanosoma cruzi (Tc) (amastigotes, Tulahuen C4 strain), Leishmania donovani (Ldo) (amastigotes, MHOM-ET-67/L82 strain) and Pf (intraerythrocytic forms, NF54 strain), and cytotoxicity tests against mammalian cells (L6-cell line from rat-skeletal myoblasts), were performed at the Swiss Tropical and Public Health Institute (Swiss TPH, Basel, Switzerland) according to established standard protocols.

The test system of data set [3] is Trypanosoma brucei rhodesiense (Tbr) (bloodstream trypomastigotes, STIB 900 strain). Set-up: method as in PMID 29738470. The conditions noted are these: cited from earlier work.
For data set [4], the system named is Plasmodium falciparum (Pf) (intraerythrocytic forms, NF54 strain). Nature of the data set: In vitro antiplasmodial activity. The data set is classed as cell-based. The note with it: for SI Pf (selectivity index): cytotoxicity L6 vs Pf. The method, then: as §1, §2
The nature of data set [5]: Cytotoxicity against mammalian control cells. The conditions noted are these: rat. The data set is classed as cell-based, rat. The method, then:
as §1, §2

For data set [6], the system named is Plasmodium falciparum (Pf) (intraerythrocytic forms, NF54 strain). Set-up: method as in PMID 24838073. The note with it: previous study; cited from earlier work.
Setting [7] is: mean of n = 2 (fluctuation range) or * n = 3 (SD).
Where [8] appears, read: read-out: Tbr IC50 (in parentheses) (converted).
Setting [9] is: NF54 strain, mean of n = 2 (fluctuation range) or * n = 3 (SD).
The mark [10] stands for this setting: NF54 strain, read-out: Pf IC50 (in parentheses) (converted).
Setting [11] is: Trypanosoma brucei, mean of n = 2 (fluctuation range) or * n = 3 (SD), read-out: Tbr IC50.
Where [12] appears, read: Trypanosoma brucei, read-out: Tbr IC50 (in parentheses) (converted).
Setting [13] is: Plasmodium falciparum, NF54, NF54 strain, mean of n = 2 (fluctuation range) or * n = 3 (SD), read-out: Pf IC50.
Where [14] appears, read: Plasmodium falciparum, NF54, NF54 strain, read-out: Pf IC50 (in parentheses) (converted).

Take `CN[C@@H](C)[C@H]1[C@H](O)C[C@@]2(C)[C@@H]3C=C[C@H]4C(C)(C)[C@@H](N(C)C)CC[C@@]45C[C@@]35CC[C@]12C` [Compound 2, Cyclovirobuxeine-B]: the “Tbr IC50” value in data set [1] (setting [7]) is 0.6 ± 0.03 µg/mL. The values for the IC50 in data set [1] (setting [8]), in data set [2] and in data set [4] (setting [10]) were 1.5 µM, 35.5 µM and 2600 nM, respectively. In data set [2], the “Cytotox. IC50” value came out at 14.7 ± 3.1 µg/mL. In addition, the “in vitro activity against Tbr” value in data set [3] was “highly active and selective”. Besides, in data set [4] (setting [9]), the “Pf IC50” value was found to be 1.07 ± 0.11 µg/mL.

For the molecule `CN[C@H]1CC=C2CC3=CC[C@]4(C)[C@@H]([C@H](C)NC(C)=O)CC[C@@]4(C)[C@@H]3CC[C@H]2C1(C)C` [Compound 24, N20-acetylbuxadine-G], the IC50 – broadly, the concentration at which inhibition is half-maximal – in data set [1] (setting [11]) is 0.52 ± 0.27 µg/mL; in data set [1] (setting [12]), 1.3 µM; in data set [5] (L6 rat skeletal myoblast cells, L6 cell line, mean of n = 2 (fluctuation range) or * n = 3 (SD), read-out: Cytotox. IC50) it was 16.9 ± 1.1 µg/mL; in data set [5] (L6 rat skeletal myoblast cells, L6 cell line, read-out: Cytotox. IC50 (in parentheses) (converted)), 41 µM; in data set [4] (setting [13]), 2.3 ± 0.27 µg/mL; in data set [4] (setting [14]), 5600 nM. Further, the “SI Tbr (selectivity index)” value in data set [1] came to 33. Moreover, the “SI Pf (selectivity index)” value in data set [4] was found to be 7.

Turning to “O-tigloylcyclovirobuxeine-B [Compound 1]”, the “Tbr IC50” value in data set [1] (setting [7]) worked out at 1.6 ± 0.55 µg/mL. Besides, the IC50 in data set [1] (setting [8]) was 3.2 µM; in data set [2] (L6 cell line, read-out: Cytotox. IC50 (in parentheses) (converted)), 19 µM; in data set [4] (setting [10]), 1050 nM. The “Cytotox. IC50” value in data set [2] (L6 cell line, mean of n = 2 (fluctuation range) or * n = 3 (SD)) was 9.4 ± 3.8 µg/mL. For the same molecule, the “in vitro activity against Pf” value in data set [6] is “strong and selective in vitro activity”. Moreover, the “Pf IC50” value in data set [4] (setting [9]) is on record as 0.52 ± 0.14 µg/mL.

For `C/C=C(\C)C(=O)O[C@@H]1C[C@@]2(C)[C@@H]3C=C[C@H]4[C@](C)(CO)[C@@H](N(C)C)CC[C@@]45C[C@@]35CC[C@]2(C)[C@H]1[C@H](C)N(C)C` [Compound 4, O-tigloylcyclomicrophylline-A], the IC50 is 1.5 ± 0.76 µg/mL in data set [1] (setting [11]); 2.9 µM in data set [1] (setting [12]); 12 µg/mL and 22.8 µM in data set [5]; 700 nM in data set [4] (setting [10]); 0.35 ± 0.08 µg/mL in data set [4] (setting [13]); less than 1000 nM in data set [4] (setting [14]). Also, in data set [1], the “SI Tbr (selectivity index)” value is listed as 8. Also, the “SI Pf (selectivity index)” value in data set [4] came to 34.

Regarding `CN[C@@H](C)[C@H]1[C@H](OC(=O)c2ccccc2)C[C@@]2(C)[C@@H]3C=C[C@H]4[C@](C)(CO)[C@@H](N(C)C)CC[C@@]45C[C@@]35CC[C@]12C` [Compound 7, Cyclomicrophyllidine-B], the IC50 in data set [1] (setting [11]) is 1.9 ± 0.3 µg/mL; in data set [1] (setting [12]), 3.6 µM; in data set [5], 16 µg/mL and 29.9 µM; in data set [4] (setting [13]), 0.11 ± 0.01 µg/mL; in data set [4] (setting [14]), 200 nM. Besides, in data set [1], the “SI Tbr (selectivity index)” value is listed as 8. Moreover, the “SI Pf (selectivity index)” value in data set [4] worked out at 145.

On to `C/C=C(\C)C(=O)O[C@@H]1C[C@@]2(C)[C@@H]3C=C[C@H]4[C@](C)(CO)[C@@H](N(C)C)CC[C@@]45C[C@@]35CC[C@]2(C)[C@H]1[C@H](C)NC` [Compound 3, O-tigloylcyclomicrophylline-B], for which the IC50 was 4.6 ± 0.005 µg/mL in data set [1] (setting [11]); 9 µM in data set [1] (setting [12]); 35.8 µg/mL and 69.9 µM in data set [5]; 980 nM in data set [4] (setting [10]); 0.5 ± 0.06 µg/mL in data set [4] (setting [13]); less than 1000 nM in data set [4] (setting [14]). For the same molecule, the “SI Tbr (selectivity index)” value in data set [1] came out at 8. The “SI Pf (selectivity index)” value in data set [4] is recorded as 72.
